Experimental findings from patent US20240366624A1, “METHODS AND COMPOSITIONS FOR TREATING THROMBOTIC DISEASE” (Washington University, priority 2023, published 2024) are described below.

Molecules are shown by their SMILES.

In general, inhibition refers to the share of the control response that was lost under treatment. The low end stands for a response near the control, the high end for a response far below the control. Broadly, the IC50 is the point on the concentration scale where inhibition reaches its midpoint.

One assay deals with T1, ERO1α (Homo sapiens, UniProt Q96HE7).
T1 sequence (Q96HE7 24-468): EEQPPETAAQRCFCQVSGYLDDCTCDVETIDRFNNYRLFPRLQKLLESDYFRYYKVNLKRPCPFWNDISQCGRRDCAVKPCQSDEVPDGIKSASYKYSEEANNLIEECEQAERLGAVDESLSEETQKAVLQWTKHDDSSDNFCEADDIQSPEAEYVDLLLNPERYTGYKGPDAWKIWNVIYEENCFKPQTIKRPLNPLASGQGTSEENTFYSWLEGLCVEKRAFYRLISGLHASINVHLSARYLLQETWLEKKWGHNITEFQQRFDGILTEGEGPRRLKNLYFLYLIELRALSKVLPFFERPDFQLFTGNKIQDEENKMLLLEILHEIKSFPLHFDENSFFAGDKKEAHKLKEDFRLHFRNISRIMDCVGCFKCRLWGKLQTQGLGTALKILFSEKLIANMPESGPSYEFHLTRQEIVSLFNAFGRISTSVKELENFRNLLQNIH
The assay is described as follows: ERO1α activity assay. In kind it is biochemical. An excerpt:
(§1) FIG. 17(A-F) is an exemplary embodiment of identification of novel ERO1α inhibitors by high throughput screening in accordance with the present disclosure. FIG. 17A: A scheme of an ERO1α activity assay. FIG. 17B: Screening of chemical libraries in the ERO1α activity assay. FIG. 17C: The inhibitory effect of selected compounds on ERO1α activity. FIG. 17D: The inhibitory effect of selected compounds on PDI activity. FIG. 17E: The inhibitory effect of selected compounds on H2O2 activity. FIG. 17F: The inhibitory effect of selected compounds on thiol-reacting activity. The data represent the mean±SD (n=3). *P<0.05, **P<0.01, ***P<0.001, and ****P<0.0001 vs. vehicle control, Student's t-test.
(§2) To identify a novel ERO1α inhibitor, 5800 compounds were screened using an ERO1α activity assay (FIG. 17A and FIG. 17B). […] The selected compounds were further tested in assays measuring PDI, antioxidant, and thiol-reacting activities (FIG. 17D through FIG. 17F). […] B12 inhibited P-selectin exposure and αIIbβ3 activation in agonist-activated mouse and human platelets in a concentration-dependent manner (FIG. 18B through FIG. 18E).

For a further assay, the target named is PDI (Homo sapiens, UniProt P07237). The assay is described as follows: PDI activity assay. The class given is biochemical.
Chain of PDI (P07237 18-508, species assumed): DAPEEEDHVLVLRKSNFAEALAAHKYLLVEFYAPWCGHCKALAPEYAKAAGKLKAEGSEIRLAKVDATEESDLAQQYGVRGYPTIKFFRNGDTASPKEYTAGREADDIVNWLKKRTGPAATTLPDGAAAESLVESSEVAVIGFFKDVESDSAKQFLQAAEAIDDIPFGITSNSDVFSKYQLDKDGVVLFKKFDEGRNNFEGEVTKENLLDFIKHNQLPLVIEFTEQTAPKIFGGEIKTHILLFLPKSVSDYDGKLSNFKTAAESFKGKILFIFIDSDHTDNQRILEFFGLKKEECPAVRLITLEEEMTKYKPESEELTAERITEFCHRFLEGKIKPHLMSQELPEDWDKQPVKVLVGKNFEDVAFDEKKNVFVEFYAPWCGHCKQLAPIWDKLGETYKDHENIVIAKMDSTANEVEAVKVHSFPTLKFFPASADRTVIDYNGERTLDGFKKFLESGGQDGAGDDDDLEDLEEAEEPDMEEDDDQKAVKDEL
Description: as §1, §2

Assay [1] in a line: H2O2 (antioxidant) activity assay. In kind it is biochemical.
Description: as §1, §2

Assay [2] is described as follows: thiol-reacting (GSH) activity assay. In kind it is biochemical.
Description: as §1, §2

Assay [3] deals with T2, MAO-A (monoamine oxidase A) (Homo sapiens, UniProt P21397).
T2 sequence (P21397 1-527): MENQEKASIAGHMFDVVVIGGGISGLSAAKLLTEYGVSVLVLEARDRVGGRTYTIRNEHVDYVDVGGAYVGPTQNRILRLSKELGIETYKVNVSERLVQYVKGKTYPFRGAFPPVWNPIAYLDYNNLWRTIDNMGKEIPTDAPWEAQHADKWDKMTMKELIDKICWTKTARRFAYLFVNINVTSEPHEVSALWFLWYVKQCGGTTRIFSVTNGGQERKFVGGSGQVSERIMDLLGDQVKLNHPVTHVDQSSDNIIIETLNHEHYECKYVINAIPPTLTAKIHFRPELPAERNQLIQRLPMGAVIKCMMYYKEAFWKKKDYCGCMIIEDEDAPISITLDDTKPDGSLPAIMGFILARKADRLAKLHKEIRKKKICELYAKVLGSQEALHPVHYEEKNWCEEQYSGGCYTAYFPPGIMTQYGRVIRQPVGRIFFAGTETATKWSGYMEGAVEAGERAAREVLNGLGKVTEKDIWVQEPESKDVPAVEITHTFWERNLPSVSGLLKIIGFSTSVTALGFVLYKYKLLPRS
The assay is described as follows: MAO-A activity assay. The class given is biochemical.

Another assay concerns mouse platelets. As to the kind of experiment: Flow cytometry of P-selectin exposure and αIIbβ3 integrin activation, mouse platelets. In kind it is cell-based. Conditions: agonist-activated mouse platelets, concentration-dependent. As for the experimental part: FIG. 10(A-E) is an exemplary embodiment of 15E9 not affecting platelet activation and aggregation in accordance with the present disclosure. Mouse platelets were treated with 0.02-0.03 (FIG. 10A P-selectin, FIG. 10B aIIbβ3) or 0.025 U/ml thrombin (FIG. 10C) in the presence of 10 μg/ml mouse IgG2a (IgG2a) or a blocking anti-ERO1α antibody (15E9). Flow cytometry (FIG. 10(A-B)) and aggregation (FIG. 10C) assays were performed. FIG. 10D: Human platelets were treated with 0.025 U/ml thrombin in the presence of mouse IgG2a (mIgG2a) or 10 μg/ml 15E9 and 16B6, followed by measuring aggregation. […] P values determined by unpaired Student's t-test (vs. mIgG1).
FIG. 18(A-R) is an exemplary embodiment of novel small-molecule inhibitors recapitulating the defect in Ero1α (endoplasmic reticulum oxidoreductase 1a)-null platelets in accordance with the present disclosure. […] After incubation with a different concentration of B12-5, the specific interaction between B12-5 and ERO1α was measured by subtracting the nonspecific binding. The KD value was calculated from the Kon and Koff values. […] P values determined by ANOVA and Dunnett test (FIG. 18(B-E), FIG. 18(1-L), and FIG. 18(O-R) [for B12-5]) or Student t test (FIG. 18M, FIG. 18N, and FIG. 18(O-R) [for BAPTA (1,2-bis(o-aminophenoxy)ethane-N,N,N′,N′-tetraacetic acid)]). […]
For orientation: A flow cytometer gives signals particle by particle.

The test system of a further assay is human platelets. The assay is described as follows: Flow cytometry of P-selectin exposure and αIIbβ3 integrin activation, human platelets. The class given is cell-based. Particulars: agonist-activated human platelets, concentration-dependent. The source says:
FIG. 18(A-R) is an exemplary embodiment of novel small-molecule inhibitors recapitulating the defect in Ero1α (endoplasmic reticulum oxidoreductase 1a)-null platelets in accordance with the present disclosure. FIG. 18A: The structure of B12 and its inhibitory effect on ERO1α activity. FIG. 18(B-E): The inhibitory effect of B12 on P-selectin exposure and αIIbβ3 integrin activation in (FIG. 18B and FIG. 18C) mouse and (FIG. 18D and FIG. 18E) human platelets. FIG. 18F: The structure of B12-5 and its inhibitory effect on ERO1α activity. FIG. 18G: A docking model of B12-5-ERO1α (3AHQ) and flavin adenine dinucleotide (FAD)-ERO1α complex. There are pi-sulfur interactions of the phenothiazine head group (B112-5) or a tricyclic ring (FAD) with Met389 and Cys397. Also, there are H bond interactions between the tail/alkyl group and His255, Asn259, and Arg287. […] After incubation with a different concentration of B12-5, the specific interaction between B12-5 and ERO1α was measured by subtracting the nonspecific binding. The KD value was calculated from the Kon and Koff values. […] P values determined by ANOVA and Dunnett test (FIG. 18(B-E), FIG. 18(1-L), and FIG. 18(O-R) [for B12-5]) or Student t test (FIG. 18M, FIG. 18N, and FIG. 18(O-R) [for BAPTA (1,2-bis(o-aminophenoxy)ethane-N,N,N′,N′-tetraacetic acid)]). […]

On ERO1α, `O=C(CSc1nc(O)c2nc[nH]c2n1)N1c2ccccc2Sc2ccccc21` [B12] had an inhibition at 20 µM of 72.9 ± 12%. Further, the IC50 at ERO1α (read-out: IC50, ERO1α activity) was determined as 12.4 µM. The inhibition at 100 µM against PDI amounted to 4.8 ± 1%; in assay [3] it was 25.3 ± 5%. At PDI (at or up to 100 μM), the “effect on PDI activity” value was “without affecting”. Further, in assay [1] (100 μM), the “H2O2 inhibition at 100 μM (%)” value is reported as 4.7 ± 1%. Further, the “effect on H2O2 (antioxidant) activity” value in assay [1] (at or up to 100 μM) is on record as “without affecting”. For the same compound, the “GSH inhibition at 100 μM (%)” value in assay [2] (100 μM) turned out to be 5.1 ± 2%. Besides, the “effect on thiol-reacting activity” value in assay [2] (at or up to 100 μM) is recorded as “without affecting”. Further, the “P-selectin exposure and αIIbβ3 activation” value in the assay on mouse platelets and with human platelets was “inhibited” each time.
